Consider one compound from US20070148710A1, “Cpt resistant cell line” (priority 2003, published 2007).

The subject of this test is SW948 human colon cancer xenografts. The test can be described thus: tumor xenograft growth. The format is in vivo, Balb/c athymic nude mice. As to conditions: initial study: Erbitux 1 mg i.p. every 3 days, CPT-11 40 mg/kg i.v. every 6 days, 3 Gy radiation (FIG. 11); n=7. The method, then: 15. […] Erbitux® (1 mg) was administered i.p. every 3 days for 5 weeks beginning on day 22 after tumor cell injection. […] Mean change in tumor size relative to size on day 22 (n=7 mice/group) is shown. At the time of Erbitux® administration (day 22), the mean±SD size of the tumors were 71.8±39.8 mm^2.
16. […] Erbitux® (1 mg) was administered i.p. 2 times a week for 3 weeks (days 24, 27, 31, 34, 38, and 41) beginning on day 24 after tumor cell injection. […] Mean change in tumor size relative to size on day 24 (n=7 mice/group). At the time of Erbitux® administration (day 24), the mean±SD size of the tumors were 58.0±29.3 mm^2.
91. Additional studies against SW948 colon cancer cells have been carried out in vitro and with SW948 tumor xenografts. […] FIG. 10 illustrates the induction of apoptosis in SW948 cells in vitro following treatment with these agents. […] This experiment was run concurrently with a third experiment in which SW948CPTH cells were used in the xenograft (FIG. 13).
92. Balb/c athymic nude mice were injected subcutaneously with 2×10^7 SW948 or SW948CPTH cells. […] Change in average tumor size measured with calipers (surface area equal to product of two largest diameters) for each group relative to the size on day 24 was determined. […] Change in average tumor size relative to day 22 was monitored as described above for SW948 tumors.

The structures appear in SMILES notation.

On to `CCc1c2c(nc3ccc(OC(=O)N4CCC(N5CCCCC5)CC4)cc13)-c1cc3c(c(=O)n1C2)COC(=O)[C@]3(O)CC` [CPT-11, Irinotecan], for which the complete regressions is 0/7.
